We go through 1 molecule from US20110178131A1, “Compounds Which Have Activity At M1 Receptor And Their Uses In Medicine” (priority 2008, published 2011).

The structures appear in SMILES notation. Structures can show the parent of a compound that is named as a salt.

The assay deals with T1, human muscarinic M1 receptors (Homo sapiens, UniProt P11229).
T1 construct: expressed in transfected cells
T1 sequence (P11229 1-460): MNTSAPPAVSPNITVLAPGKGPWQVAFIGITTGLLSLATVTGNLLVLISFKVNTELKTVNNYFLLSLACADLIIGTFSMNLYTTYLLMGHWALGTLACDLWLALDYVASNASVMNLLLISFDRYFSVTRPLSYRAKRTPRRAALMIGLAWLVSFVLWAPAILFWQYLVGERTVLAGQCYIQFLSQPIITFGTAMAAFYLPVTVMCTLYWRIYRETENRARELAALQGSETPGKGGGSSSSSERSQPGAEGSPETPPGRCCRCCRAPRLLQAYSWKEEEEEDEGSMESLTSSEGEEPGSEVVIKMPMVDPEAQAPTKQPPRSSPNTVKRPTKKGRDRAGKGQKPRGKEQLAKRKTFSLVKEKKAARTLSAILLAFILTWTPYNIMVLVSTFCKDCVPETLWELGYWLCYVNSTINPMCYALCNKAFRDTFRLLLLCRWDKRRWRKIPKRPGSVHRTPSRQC
The experiment in a line: FLIPR experiments on M1 receptors (calcium response, agonism). The class given is cell-based. Particulars: CHO-M1 cells. The procedure:
FLIPR Experiments on M1 Receptors to Determine a Agonist/Antagonist Potency
Compounds of the invention may be characterized in a functional assay to determine their ability to activate the intracellular calcium pathway in CHO cells with stable expression of human muscarinic M1 receptors using FLIPR (Fluorometric Imaging Plate Reader) technology. Briefly, CHO-M1 cells were plated (15,000/well) and allowed to grow overnight at 37 degrees. Media were removed and 30 μL loading buffer (HBSS with 2.5 mM probenicid, 2 μM Fluo-4, 500 μM Brilliant Black, pH 7.4) was added. After incubation at 37 degrees for 90 minutes, 10 μL of the assay buffer (HBSS with 2.5 mM probenecid, pH 7.4) containing test compounds was added to each well on the FLIPR instrument. Calcium response was monitored to determine agonism. […] Calcium response was then monitored again to determine compound's antagonism to acetylcholine. […] Results were imported into ActivityBase data analysis suite (ID Business Solution Inc., Parsippany, N.J.) where the curves were analysed by non-linear curve fitting and the resulting pEC50/fpKi were calculated. The maximum asymptotes of agonist compounds were calculated as percentage of maximum FLIPR response induced by carbamoylcholine chloride added as control on the same compound plates.

With `COCC1CCC(N2CCC(n3c(=O)oc4ccc(C#N)cc43)CC2)CC1` (mixture of isomers) [Example 1, 3-(1-{4-[(Methyloxy)methyl]cyclohexyl}-4-piperidinyl)-2-oxo-2,3-dihydro-1,3-benzoxazole-5-carbonitrile hydrochloride], the EC50 (FLIPR calcium response, agonism, read-out: average pEC50 at the muscarinic M1 receptor (converted)) is < 3.16 µM. Also, for the setting “maximum asymptote as percentage of maximum FLIPR response induced by carbamoylcholine chloride, read-out: intrinsic activity”, the Emax is > 50%.
